Measured values as given in ChEMBL document CHEMBL1201862, “PubChem BioAssay data set” (2004).
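A five-concentration, 48-hour dose response in 96-well plates underlies each endpoint, interpolated linearly between surrounding concentrations. Here, GI50 denotes the concentration required for 50% inhibition of growth.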 Calls of active or inactive are those of the source. Rule as the data show it: active = GI50 up to about 1.1 µM and inactive = higher.

Experiments:
Assay in all cases: NCI anticancer screen, dose series, 48 h
NCI-H460 = test system: NCI-H460
HCT-116 = test system: HCT-116
COLO 205 = test system: COLO 205
HCC 2998 = test system: HCC 2998
OVCAR-8 = test system: OVCAR-8
UACC-62 = test system: UACC-62
LOX IMVI = test system: LOX IMVI
RXF 393 = test system: RXF 393
RPMI-8226 = test system: RPMI-8226
M14 = test system: M14
K562 = test system: K562
NCI-H23 = test system: NCI-H23
U-251 = test system: U-251
NCI-H522 = test system: NCI-H522
HOP-62 = test system: HOP-62
SK-MEL-5 = test system: SK-MEL-5

Measured: GI50

CC1(C)NC(=O)N(CCCCCCN2C(=O)NC(C)(C)C2=O)C1=O
inactive: NCI-H460 > 100 µM | HCT-116 > 100 µM | COLO 205 > 100 µM | HCC 2998 > 100 µM | OVCAR-8 > 100 µM | UACC-62 > 100 µM | LOX IMVI > 100 µM | RXF 393 > 100 µM | RPMI-8226 > 100 µM | M14 > 100 µM | K562 > 100 µM | NCI-H23 > 100 µM | U-251 > 100 µM | NCI-H522 > 100 µM

CCOC(=O)C1Cc2ccc3c4c(ccc(c24)C1)CC(C(=O)OCC)C3
inactive: HCT-116 > 100 µM | COLO 205 > 100 µM | HCC 2998 > 100 µM | OVCAR-8 > 100 µM | HOP-62 > 100 µM | UACC-62 > 100 µM | LOX IMVI > 100 µM | RXF 393 > 100 µM | RPMI-8226 > 100 µM | M14 > 100 µM | K562 > 100 µM | SK-MEL-5 > 100 µM | NCI-H23 > 100 µM | U-251 > 100 µM | NCI-H522 > 100 µM

O=C(CO)CC(=O)C(=O)Nc1ccccc1
inactive: NCI-H460 > 100 µM | HCT-116 > 100 µM | COLO 205 > 100 µM | HCC 2998 > 100 µM | OVCAR-8 > 100 µM | HOP-62 > 100 µM | UACC-62 > 100 µM | LOX IMVI > 100 µM | RXF 393 > 100 µM | M14 > 100 µM | K562 > 100 µM | SK-MEL-5 > 100 µM | NCI-H23 > 100 µM | U-251 > 100 µM

CCCCCCCCCCCCCCCC(=O)OCC1OC(n2cc(F)c(=O)[nH]c2=O)C(NC(=O)OCc2ccccc2)C(O)C1O (stereo not drawn)
inactive: NCI-H460 19.2 µM | HCT-116 16.6 µM | COLO 205 17.4 µM | HCC 2998 16.3 µM | OVCAR-8 17.7 µM | UACC-62 17.1 µM | LOX IMVI 17.1 µM | RPMI-8226 15.7 µM | M14 17 µM | K562 14.5 µM | SK-MEL-5 18.2 µM | NCI-H23 18.5 µM | U-251 15.9 µM

CCOC(=O)C1(C)CCC(C(=O)OC)C1=O (stereo not drawn)
inactive: NCI-H460 15.3 µM | HCT-116 57 µM | COLO 205 44.1 µM | HCC 2998 75.3 µM | OVCAR-8 > 100 µM | HOP-62 > 100 µM | UACC-62 > 100 µM | LOX IMVI 18.1 µM | RXF 393 > 100 µM | RPMI-8226 > 100 µM | M14 > 100 µM | K562 32.8 µM | SK-MEL-5 > 100 µM | NCI-H23 > 100 µM | U-251 67.1 µM | NCI-H522 17.1 µM

COc1cc(/C=C/C(=N\NC(=O)c2ccccc2)c2sc(Nc3ccc(Cl)c(Cl)c3)nc2C)ccc1O
inactive: NCI-H460 31.3 µM | HCT-116 28.2 µM | COLO 205 34 µM | HCC 2998 28.8 µM | OVCAR-8 33.3 µM | HOP-62 38.4 µM | UACC-62 7.59 µM | LOX IMVI 19.7 µM | RXF 393 39.7 µM | M14 31 µM | K562 25.2 µM | NCI-H23 25.7 µM | U-251 31.9 µM | NCI-H522 17 µM

O=c1/c(=C/c2ccc3c(c2)OCO3)sc2nnc(-c3ccco3)n12
inactive: NCI-H460 > 100 µM | HCT-116 > 100 µM | COLO 205 > 100 µM | HCC 2998 > 100 µM | OVCAR-8 > 100 µM | HOP-62 > 100 µM | UACC-62 > 100 µM | LOX IMVI > 100 µM | RXF 393 > 100 µM | RPMI-8226 > 100 µM | M14 > 100 µM | K562 > 100 µM | SK-MEL-5 > 100 µM | NCI-H23 > 100 µM | U-251 > 100 µM | NCI-H522 > 100 µM

CSc1nc(C)cc(=O)n1C1OC(COC(C)=O)C(OC(C)=O)C(OC(C)=O)C1OC(C)=O (stereo not drawn)
inactive: NCI-H460 > 100 µM | HCT-116 > 100 µM | COLO 205 > 100 µM | HCC 2998 > 100 µM | OVCAR-8 > 100 µM | HOP-62 > 10 µM | UACC-62 > 100 µM | LOX IMVI > 100 µM | RPMI-8226 > 100 µM | M14 > 100 µM | K562 > 100 µM | SK-MEL-5 > 100 µM | NCI-H23 > 100 µM | U-251 > 100 µM | NCI-H522 > 100 µM

C=CCCC(O)c1cc(C)c(O)c(C)c1 (stereo not drawn)
inactive: NCI-H460 > 100 µM | COLO 205 > 100 µM | HCC 2998 > 100 µM | OVCAR-8 > 100 µM | HOP-62 > 100 µM | UACC-62 > 100 µM | LOX IMVI > 100 µM | RXF 393 53.3 µM | RPMI-8226 > 100 µM | M14 > 100 µM | K562 > 100 µM | SK-MEL-5 > 100 µM | NCI-H23 > 100 µM | U-251 > 100 µM | NCI-H522 > 100 µM

C[C@]12CC=CC(=O)[C@@]1(C)CCC(=O)C2
inactive: NCI-H460 > 100 µM | HCT-116 > 100 µM | HCC 2998 > 100 µM | OVCAR-8 > 100 µM | HOP-62 > 100 µM | UACC-62 > 100 µM | RXF 393 > 100 µM | M14 > 100 µM | K562 > 100 µM | SK-MEL-5 > 100 µM | NCI-H23 > 100 µM | U-251 > 100 µM | NCI-H522 > 100 µM

COc1ccc(C[P+]2(c3ccccc3)CCCCC2)cc1.O=[N+]([O-])c1ccc(C[P+]2(c3ccccc3)CCCCC2)cc1.[O-][Cl+3]([O-])([O-])[O-].[O-][Cl+3]([O-])([O-])[O-]
inactive: NCI-H460 71.6 µM | COLO 205 52.5 µM | HCC 2998 > 100 µM | OVCAR-8 > 100 µM | HOP-62 77.1 µM | UACC-62 39.2 µM | LOX IMVI 67.5 µM | RXF 393 95.9 µM | RPMI-8226 24.9 µM | M14 66.2 µM | K562 56.1 µM | SK-MEL-5 23.7 µM | NCI-H23 66.8 µM | U-251 > 100 µM

Cc1nnc(N/N=C(/C(=O)C(C#N)c2ccc(Cl)cc2)C(C#N)c2ccc(Cl)cc2)n1N (stereo not drawn)
inactive: NCI-H460 18.6 µM | COLO 205 17.7 µM | HCC 2998 19.4 µM | OVCAR-8 20 µM | HOP-62 16.6 µM | LOX IMVI 18.6 µM | RXF 393 17.7 µM | RPMI-8226 16.5 µM | M14 20.7 µM | K562 17.5 µM | SK-MEL-5 16 µM | NCI-H23 17.8 µM | NCI-H522 16.6 µM

O=[N+]([O-])c1cc(Cl)ccc1S(=O)(=O)c1ccc(Cl)cc1[N+](=O)[O-]
inactive: NCI-H460 16.1 µM | HCT-116 15.7 µM | COLO 205 17 µM | OVCAR-8 16 µM | HOP-62 21.3 µM | UACC-62 16.9 µM | LOX IMVI 16.1 µM | RXF 393 15.1 µM | RPMI-8226 29.6 µM | M14 16.7 µM | K562 28.2 µM | SK-MEL-5 14.6 µM | NCI-H23 15.2 µM | U-251 19.8 µM | NCI-H522 16.1 µM

O=C(CCC(=O)Nc1ccc(Cl)c(Cl)c1)CC(=O)c1ccc(F)cc1
inactive: NCI-H460 > 100 µM | HCT-116 > 100 µM | COLO 205 > 100 µM | HCC 2998 > 100 µM | OVCAR-8 > 100 µM | HOP-62 > 100 µM | UACC-62 89.3 µM | LOX IMVI > 100 µM | RXF 393 > 100 µM | M14 > 100 µM | K562 > 100 µM | SK-MEL-5 > 100 µM | NCI-H23 > 100 µM | U-251 > 100 µM

CCCCCCCCCC1CC(=O)Oc2cccc(O)c21 (stereo not drawn)
inactive: NCI-H460 9.91 µM | HCT-116 36.2 µM | COLO 205 16.4 µM | HCC 2998 1.23 µM | OVCAR-8 31.8 µM | HOP-62 34.3 µM | UACC-62 31.5 µM | LOX IMVI 14 µM | RXF 393 23.8 µM | RPMI-8226 28.4 µM | M14 22.7 µM | K562 24 µM | SK-MEL-5 15.2 µM | NCI-H23 3.31 µM | U-251 2.72 µM | NCI-H522 20.9 µM

COc1cc2c(cc1O)CC13CCC(=O)N1CCc1cc(OC)c(O)c-2c13 (stereo not drawn)
inactive: NCI-H460 > 68.1 µM | HCT-116 > 68.1 µM | COLO 205 > 68.1 µM | HCC 2998 > 68.1 µM | OVCAR-8 > 68.1 µM | HOP-62 > 68.1 µM | UACC-62 > 68.1 µM | LOX IMVI > 68.1 µM | RXF 393 > 68.1 µM | RPMI-8226 > 68.1 µM | M14 > 68.1 µM | K562 > 68.1 µM | SK-MEL-5 > 68.1 µM | NCI-H23 > 68.1 µM

O=C1CCC(O)=C1O
inactive: NCI-H460 > 100 µM | HCT-116 > 100 µM | COLO 205 > 100 µM | HCC 2998 > 100 µM | OVCAR-8 > 100 µM | HOP-62 > 100 µM | UACC-62 > 100 µM | LOX IMVI > 100 µM | RXF 393 > 100 µM | RPMI-8226 > 100 µM | M14 > 100 µM | K562 > 100 µM | SK-MEL-5 > 100 µM | NCI-H23 > 100 µM | U-251 > 100 µM | NCI-H522 > 100 µM

NCCOCCOCC(=O)O
inactive: HCT-116 > 100 µM | HCC 2998 > 100 µM | OVCAR-8 > 100 µM | UACC-62 > 100 µM | RXF 393 > 100 µM | RPMI-8226 > 100 µM | K562 > 100 µM | SK-MEL-5 > 100 µM | NCI-H23 > 100 µM | U-251 > 100 µM | NCI-H522 > 100 µM
